PubChem BioAssay AID270 (DTP/NCI, 2004)
Several values for one entry are separate records, joined by “and”; a condition that tells them apart may be missing. Equal values may be shown once. Results filed as inconclusive are left out. Where a SMILES comes first, the peptide text is derived from it. [ ]: non-standard residue; d: D form. The star is where a group is joined. ξ: configuration not given here. ξAsp(βξ-Me) = CC(C(=O)O)C(N)C(=O)O; X4 = CC(N*)C1NC(=O)C2CCCCN2C1=O; ξAbu(3ξ-NH2) = CC(N)C(N)C(=O)O; X3 = CCC(C)CCC/C=C/CC(=O)*

Test system: BDF1 mice, s.c. Lewis lung carcinoma, T/C %
Assay: NCI In Vivo Anticancer Drug Screen. Data for tumor model Lewis Lung Carcinoma (subcutaneous) in B6D2F1 (BDF1) mice
How it was run: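 First, mice carry a transplantable tumor. Next, groups receive either compound or vehicle. Finally, survival or tumor dimensions in the dosed animals are divided by the corresponding control figure.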

[1] = endpoint: mean tumor weight, dose: 50.0 mg/kg/injection, schedule: Q01DX011 (ip), vehicle: saline, higher = larger tumour

## CC1CC(C)(O)C2C3(C)CCCC2(COC3=O)C12CCC1(CCOC1=O)O2 (stereo not given)
endpoint: median survival time, dose: 2.5 mg/kg/injection, schedule: Q01DX009 (ip), vehicle: saline with Tween-80, higher = longer survival
  T/C: 109 % of control
endpoint: median survival time, dose: 5.0 mg/kg/injection, schedule: Q01DX009 (ip), vehicle: saline with Tween-80, higher = longer survival
  T/C: 108 % of control
endpoint: median survival time, dose: 10.0 mg/kg/injection, schedule: Q01DX009 (ip), vehicle: saline with Tween-80, higher = longer survival
  T/C: 100 % of control

## CCCCSc1nc(N)nc2c1ncn2CC(C)CC (stereo not given)
endpoint: mean tumor weight, dose: 75.0 mg/kg/injection, schedule: Q01DX011 (ip), vehicle: other, higher = larger tumour
  T/C: 103 % of control
endpoint: mean tumor weight, dose: 150.0 mg/kg/injection, schedule: Q01DX011 (ip), vehicle: other, higher = larger tumour
  T/C: 50 % of control
endpoint: mean tumor weight, dose: 300.0 mg/kg/injection, schedule: Q01DX011 (ip), vehicle: other, higher = larger tumour
  T/C: 53 % of control

## O=NN(CCF)C(=O)NC1CCSc2ccccc21 (stereo not given)
endpoint: median survival time, dose: 24.0 mg/kg/injection, schedule: Q01DX001 (ip), vehicle: saline with Tween-80, higher = longer survival
  T/C: 88 % of control

## O=C(O)c1cc(O)c(O)c(O)c1
[1]
  T/C: 111 % of control
endpoint: mean tumor weight, dose: 200.0 mg/kg/injection, schedule: Q01DX011 (ip), vehicle: saline, higher = larger tumour
  T/C: 89 % of control
endpoint: mean tumor weight, dose: 400.0 mg/kg/injection, schedule: Q01DX011 (ip), vehicle: saline, higher = larger tumour
  T/C: 99 % of control

## CCOC(=O)C(Br)CC (stereo not given)
endpoint: mean tumor weight, dose: 148.0 mg/kg/injection, schedule: Q01DX011 (ip), vehicle: other, higher = larger tumour
  T/C: 77 % of control

## COC(=O)C(N)CCCCNc1ccc2c(cc1=O)C(NC(C)=O)CCc1cc(OC)c(OC)c(OC)c1-2 (stereo not given)
endpoint: median survival time, dose: 25.0 mg/kg/injection, schedule: Q02DX009 (ip), vehicle: saline with Tween-80, higher = longer survival
  T/C: 100 % of control
endpoint: median survival time, dose: 50.0 mg/kg/injection, schedule: Q02DX009 (ip), vehicle: saline with Tween-80, higher = longer survival
  T/C: 94 % of control

## CC(=O)c1c(O)c(C)c(O)c(Cc2c(O)c3c(c(C(=O)/C=C/c4ccccc4)c2O)OC(C)(C)C=C3)c1O
endpoint: mean tumor weight, dose: 15.0 mg/kg/injection, schedule: Q01DX011 (ip), vehicle: saline, higher = larger tumour
  T/C: 96 % of control
endpoint: mean tumor weight, dose: 22.0 mg/kg/injection, schedule: Q01DX011 (ip), vehicle: saline, higher = larger tumour
  T/C: 82 % of control
endpoint: mean tumor weight, dose: 35.0 mg/kg/injection, schedule: Q01DX011 (ip), vehicle: saline, higher = larger tumour
  T/C: 79 % of control

## C=C(C)C12CC(COC(=O)c3ccccc3)C34OC5(OC1C3C1OC1(CO)C(O)C1(O)C(OC(=O)c3ccccc3)C(C)C(C(C)CCCCCCC5O)C14)O2 (stereo not given)
endpoint: median survival time, dose: 3.8 micrograms/kg/injection, schedule: Q01DX009 (ip), vehicle: saline, higher = longer survival
  T/C: 107 % of control
endpoint: median survival time, dose: 7.5 micrograms/kg/injection, schedule: Q01DX009 (ip), vehicle: saline, higher = longer survival
  T/C: 100 % of control

## O=c1c(O)c(-c2ccc(O)c(O)c2)oc2cc(O)cc(O)c12
endpoint: mean tumor weight, dose: 12.5 mg/kg/injection, schedule: Q01DX011 (ip), vehicle: saline, higher = larger tumour
  T/C: 86 % of control
endpoint: mean tumor weight, dose: 25.0 mg/kg/injection, schedule: Q01DX011 (ip), vehicle: saline, higher = larger tumour
  T/C: 71 % of control
[1]
  T/C: 61 % of control
endpoint: mean tumor weight, dose: 100.0 mg/kg/injection, schedule: Q01DX011 (ip), vehicle: saline, higher = larger tumour
  T/C: 100 % of control

## CCC(C)CCC/C=C/CC(=O)NC(CC(=O)O)C(=O)NC(C(=O)NC(CC(=O)O)C(=O)NCC(=O)NC(CC(=O)O)C(=O)NCC(=O)NC(C(=O)NC(C(=O)N1CCCC1C(=O)NC(C)C1NC(=O)C2CCCCN2C1=O)C(C)C)C(C)N)C(C)C(=O)O (stereo not drawn) (X3-D[ξAsp(βξ-Me)]DGDG[ξAbu(3ξ-NH2)]VP-X4; configuration not given here)
endpoint: median survival time, dose: 100.0 mg/kg/injection, schedule: Q01DX009 (ip), vehicle: saline + alcohol, higher = longer survival
  T/C: 124 % of control
endpoint: median survival time, dose: 200.0 mg/kg/injection, schedule: Q01DX009 (ip), vehicle: saline + alcohol, higher = longer survival
  T/C: 99 % of control

## COC1=C(N2CC2)C(=O)C(OC)=C(N2CC2)C1=O
endpoint: median survival time, dose: 0.25 mg/kg/injection, schedule: Q01DX009 (ip), vehicle: Klucel (hydroxypropylcellulose) (HPC), higher = longer survival
  T/C: 97 % of control
endpoint: median survival time, dose: 0.5 mg/kg/injection, schedule: Q01DX009 (ip), vehicle: Klucel (hydroxypropylcellulose) (HPC), higher = longer survival
  T/C: 106 % of control
endpoint: median survival time, dose: 1.0 mg/kg/injection, schedule: Q01DX009 (ip), vehicle: Klucel (hydroxypropylcellulose) (HPC), higher = longer survival
  T/C: 101 % of control
endpoint: median survival time, dose: 2.0 mg/kg/injection, schedule: Q01DX009 (ip), vehicle: Klucel (hydroxypropylcellulose) (HPC), higher = longer survival
  T/C: 111 % of control
endpoint: median survival time, dose: 4.0 mg/kg/injection, schedule: Q01DX009 (ip), vehicle: Klucel (hydroxypropylcellulose) (HPC), higher = longer survival
  T/C: 124 % of control

## CC(C)=CCC/C(C)=C/CNCCc1c[nH]c2ccccc12
endpoint: median survival time, dose: 6.25 mg/kg/injection, schedule: Q01DX009 (ip), vehicle: Klucel (hydroxypropylcellulose) (HPC), higher = longer survival
  T/C: 100 % of control
endpoint: median survival time, dose: 12.5 mg/kg/injection, schedule: Q01DX009 (ip), vehicle: Klucel (hydroxypropylcellulose) (HPC), higher = longer survival
  T/C: 101 % of control
endpoint: median survival time, dose: 25.0 mg/kg/injection, schedule: Q01DX009 (ip), vehicle: Klucel (hydroxypropylcellulose) (HPC), higher = longer survival
  T/C: 97 % of control

## CCCCCC/C=C/C#CCCCCCCCC(=O)O
endpoint: median survival time, dose: 18.75 mg/kg/injection, schedule: Q01DX009 (ip), vehicle: Klucel (hydroxypropylcellulose) (HPC), higher = longer survival
  T/C: 97 % of control
endpoint: median survival time, dose: 37.5 mg/kg/injection, schedule: Q01DX009 (ip), vehicle: Klucel (hydroxypropylcellulose) (HPC), higher = longer survival
  T/C: 90 % of control and 91 % of control
endpoint: median survival time, dose: 75.0 mg/kg/injection, schedule: Q01DX009 (ip), vehicle: Klucel (hydroxypropylcellulose) (HPC), higher = longer survival
  T/C: 102 % of control and 111 % of control
